Results reported in patent publication EP4707280A1, “1,4-CINEOLE DERIVATIVE AND INTERMEDIATE THEREOF, HERBICIDE CONTAINING SAID DERIVATIVE AS ACTIVE INGREDIENT, METHOD FOR USING HERBICIDE, AND METHOD FOR PREPARING AGROCHEMICAL COMPOSITION” (HOKKO CHEMICAL INDUSTRY CO., LTD., priority 2023, dated 2024).

Tests used:
Format in all cases: in vivo
[1] = test system: Echinochloa crus-galli; assay: Test Example 4: herbicidal effect test by stem and leaf treatment in upland field; conditions: 120 g per 10 ares, sprayed seven days after sowing, upland soil, 14 days after application; for inhibition at 1200 g/ha: Echinochloa crus-galli, read-out: weed inhibition rate
[2] = test system: Echinochloa crus-galli var. formosensis; assay: Test Example 6: herbicidal effect test by application during growth period of paddy rice (low dose); conditions: 7.5 g per 10 ares, applied seven days after sowing, flooded pots, 14 days after application; for inhibition at 75 g/ha: Echinochloa crus-galli, read-out: weed inhibition rate
Procedure: (§1) The present test was conducted in duplicate for each chemical concentration group, and the weed inhibition rate (%) was determined 14 days after chemical application using the following formula (Math. 1). [formula]
(§2) Wagner pots with an area of […] were filled with paddy soil, followed by addition of water and incorporation of chemical fertilizer (N:P:K = 16:16:16), after which puddling was performed. After that, seeds of Echinochloa crus-galli var. formosensis, broad-leaved weeds (Monochoria vaginalis), and Scirpus juncoides were sown at a depth of 0 cm to 1 cm, 30 seeds each. Immediately after sowing, the pots were flooded and a water depth of approximately 3 cm was maintained. Subsequent management was conducted in a glass greenhouse. Seven days after sowing, an emulsifiable concentrate prepared according to Formulation Example 5 using the compound shown below was diluted with water, and a specified amount of the diluted solution was applied by dropper. The amount of the active ingredient to be applied was equivalent to 7.5 g per 10 ares. The test was conducted in duplicate for each chemical concentration group, and the herbicidal effect was evaluated 14 days after chemical application using the same criteria as in Test Example 1.

[3] = test system: Echinochloa crus-galli; assay: Test Example 3: herbicidal effect test by soil application in upland field; conditions: 120 g per 10 ares, sprayed one day after sowing, 14 days after application; for inhibition at 1200 g/ha: Echinochloa crus-galli, read-out: weed inhibition rate
Procedure, shortened: (§3)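 Pre-emergence test: seeds mixed into top 1 cm of alluvial loam upland soil in pots; emulsifiable concentrate diluted in water sprayed on soil one day after sowing at 100 L/10 a, 120 g a.i./10 a. Weed inhibition rate (%) scored at 14 days, in duplicate.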

[4] = test system: Echinochloa crus-galli var. formosensis; assay: Test Example 5: herbicidal effect test by soil application in paddy rice (low dose); conditions: 7.5 g per 10 ares, applied immediately after sowing, flooded pots, 14 days after application; for inhibition at 75 g/ha: Echinochloa crus-galli, soil, 336 h, read-out: weed inhibition rate
Procedure: as §1
as §2, with “Immediately thereafter,” for “Seven days after sowing,”, “The test was conducted in duplicate for each chemical concentration group, and the herbicidal effect was evaluated 14 days after chemical application using the same criteria as in Test Example 1.” left out

[5] = test system: Echinochloa crus-galli var. formosensis; assay: Test Example 2: herbicidal effect test by application during growth period of paddy rice; conditions: 120 g per 10 ares, applied seven days after sowing, flooded pots, 14 days after application; for inhibition at 1200 g/ha: Echinochloa crus-galli, read-out: weed inhibition rate
Procedure, shortened: (§4)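 Paddy soil in flooded pots (water depth about 3 cm) was sown with weed seeds and kept in a glass greenhouse. Seven days after sowing, a diluted emulsifiable concentrate was applied by dropper at 120 g active ingredient per 10 ares. Weed inhibition was evaluated 14 days after application, in duplicate.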

[6] = test system: Echinochloa crus-galli var. formosensis; assay: Test Example 1: herbicidal effect test by soil application in paddy rice; conditions: 120 g active ingredient per 10 ares, applied immediately after sowing, flooded pots, 14 days after application; for pest or weed control at 1200 g/ha: Echinochloa crus-galli, soil, 336 h, read-out: weed inhibition rate
Procedure, shortened: (§5)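 Paddy soil in Wagner pots (1/10,000 acre), fertilized and puddled; 30 seeds per species sown at 0–1 cm, flooded to ~3 cm, greenhouse. Water-diluted emulsifiable concentrate dropped onto flooded pots right after sowing at 120 g active ingredient per 10 ares.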

[7] = test system: Digitaria ciliaris; assay: Test Example 3: herbicidal effect test by soil application in upland field; conditions: 120 g per 10 ares, sprayed one day after sowing, 14 days after application; for inhibition at 1200 g/ha: Digitaria ciliaris, read-out: weed inhibition rate
Procedure, shortened: as §3

[8] = test system: Digitaria ciliaris; assay: Test Example 4: herbicidal effect test by stem and leaf treatment in upland field; conditions: 120 g per 10 ares, sprayed seven days after sowing, upland soil, 14 days after application; for inhibition at 1200 g/ha: Digitaria ciliaris, read-out: weed inhibition rate
[9] = test system: Scirpus juncoides; assay: Test Example 2: herbicidal effect test by application during growth period of paddy rice; conditions: Schoenoplectiella juncoides; 120 g per 10 ares; applied seven days after sowing, flooded pots; 14 days after application; read-out: weed inhibition rate
Procedure, shortened: as §4

[10] = test system: Scirpus juncoides; assay: Test Example 1: herbicidal effect test by soil application in paddy rice; conditions: Schoenoplectiella juncoides, soil, 336 h; 120 g active ingredient per 10 ares; applied immediately after sowing, flooded pots; 14 days after application; read-out: weed inhibition rate
Procedure, shortened: as §5

Cc1ccccc1CO[C@@H]1C[C@]2(C(C)C)O[C@@]1(C)CC2c1ccccc1 (stereo partly drawn) [1-313, (1S,2R,4R)-4-isopropyl-1-methyl-2-((2-methylbenzyl)oxy)-5-phenyl-7-oxabicyclo[2.2.1]heptane]
≥ 80%: inhibition at 1200 g/ha [1] | inhibition at 75 g/ha [2] | inhibition at 1200 g/ha [3] | inhibition at 75 g/ha [4] | inhibition at 1200 g/ha [5] | pest or weed control at 1200 g/ha [6]

CCCCCCO[C@@H]1C[C@]2(C(C)C)O[C@@]1(C)C[C@@H]2Br [1-669, (1S,2R,4R,5S)-5-bromo-2-hexoxy-1-methyl-4-isopropyl-7-oxabicyclo[2.2.1]heptane]
≥ 80%: inhibition at 1200 g/ha [1] | inhibition at 1200 g/ha [3] | inhibition at 1200 g/ha [7] | inhibition at 1200 g/ha [8] | inhibition at 1200 g/ha [5] | inhibition at 1200 g/ha [9] | pest or weed control at 1200 g/ha [6]

CC(C)[C@]12C[C@@H](OCC3CCCCC3)[C@](C)(C[C@@H]1Br)O2 [1-676, (1S,2R,4R,5S)-5-bromo-2-(cyclohexylmethoxy)-1-methyl-4-isopropyl-7-oxabicyclo[2.2.1]heptane]
≥ 80%: inhibition at 1200 g/ha [1] | inhibition at 75 g/ha [2] | inhibition at 1200 g/ha [3] | inhibition at 1200 g/ha [7] | inhibition at 75 g/ha [4] | inhibition at 1200 g/ha [8] | inhibition at 1200 g/ha [5] | pest or weed control at 1200 g/ha [6] | pest or weed control at 1200 g/ha [10]

CC(C)[C@]12C[C@@H](OCc3cccc4ccccc34)[C@](C)(C[C@@H]1Br)O2 [1-715, (1S,2R,4R,5S)-5-bromo-1-methyl-2-(naphthalen-1-ylmethoxy)-4-isopropyl-7-oxabicyclo[2.2.1]heptane]
≥ 80%: inhibition at 75 g/ha [2] | inhibition at 75 g/ha [4] | inhibition at 1200 g/ha [5] | pest or weed control at 1200 g/ha [6]

Cc1noc(C)c1CO[C@@H]1C[C@]2(C(C)C)O[C@@]1(C)C[C@@H]2Br [1-723, 4-[[(1S,2R,4R,5S)-5-bromo-1-methyl-4-isopropyl-7-oxabicyclo[2.2.1]heptan-2-yl]oxymethyl]-3,5-dimethyl-1,2-oxazole]
≥ 80%: inhibition at 75 g/ha [2] | inhibition at 75 g/ha [4] | inhibition at 1200 g/ha [5] | pest or weed control at 1200 g/ha [6]

CC(C)[C@]12C[C@@H](OCc3cccnc3)[C@](C)(C[C@@H]1I)O2 [1-786, 3-[[(1S,2R,4R,5S)-5-iodo-4-isopropyl-1-methyl-7-oxabicyclo[2.2.1]heptan-2-yl]oxymethyl]pyridine]
≥ 80%: inhibition at 1200 g/ha [9] | pest or weed control at 1200 g/ha [10]

CC(C)[C@]12C[C@@H](OCc3ccccc3F)[C@](C)(CC1c1ccsc1)O2 (stereo partly drawn) [1-928, (1S,2R,4R)-2-((2-fluorobenzyl)oxy)-4-isopropyl-1-methyl-5-(thiophen-3-yl)-7-oxabicyclo[2.2.1]heptane]
≥ 80%: inhibition at 1200 g/ha [1] | inhibition at 75 g/ha [2] | inhibition at 75 g/ha [4] | inhibition at 1200 g/ha [8] | inhibition at 1200 g/ha [5] | pest or weed control at 1200 g/ha [6]

CC(=O)O[C@@H]1C[C@]2(C)O[C@@]1(C(C)C)C[C@H]2OCc1ccccc1F [1-932, [(1R,2R,4S,5R)-5-[(2-fluorophenyl)methoxy]-4-methyl-1-isopropyl-7-oxabicyclo[2.2.1]heptan-2-yl]acetate]
≥ 80%: weed inhibition rate [2] | weed inhibition rate [4] | weed inhibition rate [5] | weed inhibition rate [6]

Cc1cccc(C)c1COC1CC2(C(C)C)OC1(C)CC2Br (centres unmarked) [1-1599, 5-bromo-2-[(2,6-dimethylphenyl)methoxy]-1-methyl-4-isopropyl-7-oxabicyclo[2.2.1]heptane]
≥ 80%: inhibition at 1200 g/ha [1] | inhibition at 1200 g/ha [3] | inhibition at 1200 g/ha [7] | inhibition at 1200 g/ha [8] | inhibition at 1200 g/ha [5] | pest or weed control at 1200 g/ha [6]

CC(C)[C@@]12C[C@H](OCc3c(F)cccc3Br)[C@@](C)(C[C@H]1I)O2 [1-1601, (1R,2S,4S,5R)-2-[(2-bromo-6-fluorophenyl)methoxy]-5-iodo-1-methyl-4-isopropyl-7-oxabicyclo[2.2.1]heptane]
≥ 80%: inhibition at 1200 g/ha [1] | inhibition at 1200 g/ha [3] | inhibition at 1200 g/ha [7] | inhibition at 1200 g/ha [8] | inhibition at 1200 g/ha [5] | pest or weed control at 1200 g/ha [6]

CC(C)[C@]12C[C@@H](OCc3ccccc3F)[C@](C)(C[C@@H]1OCC(F)(F)F)O2 [1-1605, (1S,2R,4R,5S)-2-[(2-fluorophenyl)methoxy]-1-methyl-4-isopropyl-5-(2,2,2-trifluoroethoxy)-7-oxabicyclo[2.2.1]heptane]
≥ 80%: inhibition at 1200 g/ha [1] | inhibition at 1200 g/ha [3] | inhibition at 1200 g/ha [7] | inhibition at 1200 g/ha [8] | inhibition at 1200 g/ha [5] | pest or weed control at 1200 g/ha [6]

CC(C)[C@]12C[C@@H](OCc3ccccc3F)[C@](C)(C[C@@H]1OCc1ccccc1)O2 [1-1606, (1S,2R,4R,SS)-2-[(2-fluorophenyl)methoxy]-1-methyl-5-phenylmethoxy-4-isopropyl-7-oxabicyclo[2.2.1]heptane]
≥ 80%: weed inhibition rate [1] | weed inhibition rate [3] | weed inhibition rate [7] | weed inhibition rate [8] | weed inhibition rate [5] | weed inhibition rate [6]

Cc1cccc(C)c1CO[C@H]1C[C@@]2(C(C)C)O[C@]1(C)C[C@H]2Br [1-1608, (1R,2S,4S,5R)-5-bromo-2-[(2,6-dimethylphenyl)methoxy]-1-methyl-4-isopropyl-7-oxabicyclo[2.2.1]heptane]
≥ 80%: inhibition at 1200 g/ha [1] | inhibition at 1200 g/ha [3] | inhibition at 1200 g/ha [7] | inhibition at 1200 g/ha [8] | inhibition at 1200 g/ha [5] | pest or weed control at 1200 g/ha [6]

CC(C)[C@@]12C[C@H](OCc3c(F)cccc3Br)[C@@](C)(C[C@H]1Br)O2 [1-1609, (1R,2S,4S,5R)-5-bromo-2-[(2-bromo-6-fluorophenyl)methoxy]-1-methyl-4-isopropyl-7-oxabicyclo[2.2.1]heptane]
≥ 80%: inhibition at 1200 g/ha [1] | inhibition at 1200 g/ha [3] | inhibition at 1200 g/ha [7] | inhibition at 1200 g/ha [8] | inhibition at 1200 g/ha [5] | pest or weed control at 1200 g/ha [6]

COc1ccccc1CO[C@@H]1C[C@]2(C(C)C)O[C@@]1(C)CC2=O [2-7, (1R,4S,5R)-1-isopropyl-5-((2-methoxybenzyl)oxy)-4-methyl-7-oxabicyclo[2.2.1]heptan-2-one]
≥ 80%: inhibition at 1200 g/ha [1] | inhibition at 75 g/ha [4] | inhibition at 1200 g/ha [8] | inhibition at 1200 g/ha [5] | pest or weed control at 1200 g/ha [6]

CC(C)[C@]12C[C@@H](OCc3ccccc3OC(F)(F)F)[C@](C)(CC1=O)O2 [2-348, (1R,4S,5R)-1-isopropyl-4-methyl-5-((2-(trifluoromethoxy)benzyl)oxy)-7-oxabicyclo[2.2.1]heptan-2-one]
≥ 80%: inhibition at 1200 g/ha [1] | inhibition at 1200 g/ha [3] | inhibition at 1200 g/ha [7] | inhibition at 1200 g/ha [8] | inhibition at 1200 g/ha [5] | pest or weed control at 1200 g/ha [6]
